Calls of active or inactive are those of the source. The rule behind the calls is not given here.
Columns and labels:
[1] = molecular target: G protein-coupled receptor kinase 3 (Homo sapiens, UniProt P35626); test: BARK2 [GRK3(ADR2LGG5)] Takeda global kinase panel
[2] = molecular target: D(1A) dopamine receptor (Homo sapiens) (UniProt P21728); conditions: Compound concentration 10.0 uM
[3] = molecular target: Fibroblast growth factor receptor 4 (Homo sapiens, UniProt P22455); test: FGFR4(FGF4LGF1) Takeda global kinase panel
[4] = molecular target: Receptor-interacting serine/threonine-protein kinase 1 (Homo sapiens, UniProt Q13546); test: RIPK1(RIP1PGN1) Takeda global kinase panel
[5] = molecular target: Mitogen-activated protein kinase kinase kinase 9 (Homo sapiens, UniProt P80192); test: MLK1(M3K9LGF1) Takeda global kinase panel
Sequence of Mitogen-activated protein kinase kinase kinase 9 (P80192 whole entry): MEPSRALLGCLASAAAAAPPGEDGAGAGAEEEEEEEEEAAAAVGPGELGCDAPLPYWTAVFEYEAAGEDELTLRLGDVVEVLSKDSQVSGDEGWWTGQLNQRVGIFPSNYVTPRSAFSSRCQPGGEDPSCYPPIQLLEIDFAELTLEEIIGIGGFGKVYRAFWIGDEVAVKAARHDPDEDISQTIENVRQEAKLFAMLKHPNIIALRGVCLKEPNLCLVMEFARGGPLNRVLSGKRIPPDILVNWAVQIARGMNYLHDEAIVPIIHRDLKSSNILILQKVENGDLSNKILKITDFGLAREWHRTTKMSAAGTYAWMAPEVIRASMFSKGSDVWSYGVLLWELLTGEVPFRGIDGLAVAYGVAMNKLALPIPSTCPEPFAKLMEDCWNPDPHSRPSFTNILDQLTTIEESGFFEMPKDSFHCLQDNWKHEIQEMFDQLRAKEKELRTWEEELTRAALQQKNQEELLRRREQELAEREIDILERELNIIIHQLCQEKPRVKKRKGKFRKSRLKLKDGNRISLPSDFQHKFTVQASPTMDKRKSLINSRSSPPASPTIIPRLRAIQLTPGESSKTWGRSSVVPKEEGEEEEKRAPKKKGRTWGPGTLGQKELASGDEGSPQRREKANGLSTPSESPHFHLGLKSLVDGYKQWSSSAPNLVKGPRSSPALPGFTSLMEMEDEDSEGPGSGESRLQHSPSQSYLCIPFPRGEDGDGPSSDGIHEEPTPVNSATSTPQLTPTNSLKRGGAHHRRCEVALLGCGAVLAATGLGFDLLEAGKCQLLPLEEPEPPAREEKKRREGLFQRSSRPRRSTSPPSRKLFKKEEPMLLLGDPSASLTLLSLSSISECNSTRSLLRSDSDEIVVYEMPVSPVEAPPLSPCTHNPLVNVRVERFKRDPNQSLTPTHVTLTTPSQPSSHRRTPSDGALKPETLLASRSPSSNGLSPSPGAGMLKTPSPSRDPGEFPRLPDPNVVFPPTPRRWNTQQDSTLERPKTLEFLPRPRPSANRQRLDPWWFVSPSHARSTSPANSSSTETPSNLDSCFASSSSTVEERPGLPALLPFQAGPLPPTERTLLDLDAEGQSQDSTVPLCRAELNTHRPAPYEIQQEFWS

[6] = molecular target: Beta-adrenergic receptor kinase 1 (Homo sapiens, UniProt P25098); test: BARK1 [GRK2(ADR1LGG5)] Takeda global kinase panel
[7] = molecular target: GABA-A receptor; anion channel (Rattus norvegicus) (UniProt O09028+P15431+P18506+P18508+P19969+P20236+P23574+P23576+P28471+P28473+P30191+P62813+P63079+P63138+Q91ZM7+Q9ES14); conditions: Compound concentration 10.0 uM
[8] = molecular target: Receptor-interacting serine/threonine-protein kinase 2 (Homo sapiens, UniProt O43353); test: RIPK2(RIP2LGI1) Takeda global kinase panel
[9] = molecular target: Serine/threonine-protein kinase 32A (Homo sapiens, UniProt Q8WU08); test: YANK1(S32APHY1) Takeda global kinase panel
[10] = molecular target: Mitogen-activated protein kinase kinase kinase 7 (Homo sapiens, UniProt O43318); test: TAK1(M3K7CHY1) Takeda global kinase panel
Sequence of Mitogen-activated protein kinase kinase kinase 7 (O43318 whole entry): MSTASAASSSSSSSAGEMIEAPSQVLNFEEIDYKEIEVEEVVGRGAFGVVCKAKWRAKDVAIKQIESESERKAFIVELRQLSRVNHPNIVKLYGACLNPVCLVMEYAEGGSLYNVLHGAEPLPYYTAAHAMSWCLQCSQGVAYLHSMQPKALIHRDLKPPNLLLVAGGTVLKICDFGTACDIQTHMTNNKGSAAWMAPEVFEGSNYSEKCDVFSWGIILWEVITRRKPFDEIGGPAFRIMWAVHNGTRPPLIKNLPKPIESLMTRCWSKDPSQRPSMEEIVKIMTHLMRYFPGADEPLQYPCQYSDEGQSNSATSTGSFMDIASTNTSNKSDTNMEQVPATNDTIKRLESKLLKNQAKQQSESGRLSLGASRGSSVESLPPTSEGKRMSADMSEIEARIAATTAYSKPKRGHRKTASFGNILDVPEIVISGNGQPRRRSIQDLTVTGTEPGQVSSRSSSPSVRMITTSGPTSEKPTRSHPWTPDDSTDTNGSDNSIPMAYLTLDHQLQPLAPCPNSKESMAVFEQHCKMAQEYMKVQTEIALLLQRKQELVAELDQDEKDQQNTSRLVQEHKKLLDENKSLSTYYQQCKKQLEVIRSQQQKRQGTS

[11] = molecular target: 5-hydroxytryptamine receptor 1D (Homo sapiens) (UniProt P28221); conditions: Compound concentration 10.0 uM
[12] = molecular target: Serine/threonine-protein kinase 3 (Homo sapiens, UniProt Q13188); test: MST2(STK3LGF1) Takeda global kinase panel
Sequence of Serine/threonine-protein kinase 3 (Q13188 whole entry): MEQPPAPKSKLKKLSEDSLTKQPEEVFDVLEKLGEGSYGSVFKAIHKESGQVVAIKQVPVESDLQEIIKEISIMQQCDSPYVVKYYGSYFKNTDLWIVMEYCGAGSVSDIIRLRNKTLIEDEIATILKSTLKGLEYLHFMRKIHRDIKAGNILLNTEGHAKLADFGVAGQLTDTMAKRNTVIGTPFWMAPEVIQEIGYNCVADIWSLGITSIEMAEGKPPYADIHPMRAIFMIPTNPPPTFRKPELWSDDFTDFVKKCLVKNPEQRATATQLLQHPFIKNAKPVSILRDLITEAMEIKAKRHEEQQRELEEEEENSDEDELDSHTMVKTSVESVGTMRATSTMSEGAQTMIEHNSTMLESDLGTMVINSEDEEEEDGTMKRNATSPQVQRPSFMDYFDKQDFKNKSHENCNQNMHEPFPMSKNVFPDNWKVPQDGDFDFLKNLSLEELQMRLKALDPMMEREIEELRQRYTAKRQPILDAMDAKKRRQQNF

[13] = molecular target: Fibroblast growth factor receptor 3 (Homo sapiens, UniProt P22607); test: FGFR3(FGF3LGF1) Takeda global kinase panel
[14] = molecular target: Citron Rho-interacting kinase (Homo sapiens, UniProt O14578); test: CRIK(CIT1LGY1) Takeda global kinase panel
Ephrin type-A receptor 3 = Ephrin type-A receptor 3 (Homo sapiens, UniProt P29320); test: EphA3(EPA3LGD5) Takeda global kinase panel
Sequence of Ephrin type-A receptor 3 (P29320 whole entry): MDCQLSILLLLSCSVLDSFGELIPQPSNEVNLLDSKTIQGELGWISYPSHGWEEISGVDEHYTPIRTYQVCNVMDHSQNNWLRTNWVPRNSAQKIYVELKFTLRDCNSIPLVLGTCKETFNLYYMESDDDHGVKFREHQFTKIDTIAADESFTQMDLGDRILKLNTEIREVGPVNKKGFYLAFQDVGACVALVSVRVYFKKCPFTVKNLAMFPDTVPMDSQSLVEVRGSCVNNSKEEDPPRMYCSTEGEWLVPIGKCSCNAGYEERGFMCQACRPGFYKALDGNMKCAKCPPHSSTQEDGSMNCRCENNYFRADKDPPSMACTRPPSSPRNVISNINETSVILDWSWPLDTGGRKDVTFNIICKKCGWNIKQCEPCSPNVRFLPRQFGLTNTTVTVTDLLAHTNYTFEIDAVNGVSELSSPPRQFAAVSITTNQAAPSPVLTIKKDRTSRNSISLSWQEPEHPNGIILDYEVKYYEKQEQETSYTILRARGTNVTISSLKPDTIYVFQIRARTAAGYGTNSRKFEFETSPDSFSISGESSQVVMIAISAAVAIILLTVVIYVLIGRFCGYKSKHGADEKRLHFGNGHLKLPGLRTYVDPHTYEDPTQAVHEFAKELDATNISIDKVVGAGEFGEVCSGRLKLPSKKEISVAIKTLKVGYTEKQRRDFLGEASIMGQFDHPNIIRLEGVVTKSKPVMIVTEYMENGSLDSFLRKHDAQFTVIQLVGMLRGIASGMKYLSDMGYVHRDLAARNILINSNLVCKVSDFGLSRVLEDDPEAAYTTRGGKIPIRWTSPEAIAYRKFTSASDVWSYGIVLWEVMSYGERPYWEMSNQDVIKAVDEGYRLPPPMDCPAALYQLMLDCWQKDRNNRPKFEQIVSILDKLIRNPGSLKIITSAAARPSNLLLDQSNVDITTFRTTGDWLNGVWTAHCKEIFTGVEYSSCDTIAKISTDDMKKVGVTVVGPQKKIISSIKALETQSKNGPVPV

[15] = molecular target: Serine/threonine-protein kinase Sgk2 (Homo sapiens, UniProt Q9HBY8); test: SGK2(SGK2LGE5) Takeda global kinase panel
Sequence of Serine/threonine-protein kinase Sgk2 (Q9HBY8 whole entry): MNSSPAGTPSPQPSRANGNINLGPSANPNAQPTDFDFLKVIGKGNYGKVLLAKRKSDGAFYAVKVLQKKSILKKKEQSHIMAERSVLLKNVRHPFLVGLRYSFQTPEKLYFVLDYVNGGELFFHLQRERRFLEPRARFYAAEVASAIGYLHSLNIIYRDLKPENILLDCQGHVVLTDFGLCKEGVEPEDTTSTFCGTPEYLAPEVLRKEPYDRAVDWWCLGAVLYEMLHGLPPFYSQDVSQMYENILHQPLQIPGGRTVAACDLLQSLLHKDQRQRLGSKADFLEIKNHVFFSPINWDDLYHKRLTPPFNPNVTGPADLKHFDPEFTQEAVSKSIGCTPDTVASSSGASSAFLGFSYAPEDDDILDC

[16] = molecular target: Mitogen-activated protein kinase 11 (Homo sapiens, UniProt Q15759); test: p38beta(MP11LGI1) Takeda global kinase panel
[17] = molecular target: Microtubule-associated serine/threonine-protein kinase 4 (Homo sapiens, UniProt O15021); test: MAST4(MAS4LGRD) Takeda global kinase panel
[18] = molecular target: cGMP-dependent protein kinase 2 (Homo sapiens, UniProt Q13237); test: PKG2(PRG2LHY1) Takeda global kinase panel
[19] = molecular target: Tyrosine-protein kinase ABL2 (Homo sapiens, UniProt P42684); test: Arg(ABL2LGF1) Takeda global kinase panel
[20] = molecular target: Serine/threonine-protein kinase H1 (Homo sapiens, UniProt P11801); test: PSKH1(PSH1LGRH) Takeda global kinase panel
HT-29 = test: HT29 necroptosis assay; assay type: functional, cell-based; conditions: Homo sapiens
[21] = molecular target: Serine/threonine-protein kinase PAK 4 (Homo sapiens, UniProt O96013); test: PAK4(PAK4CGY1) Takeda global kinase panel
[22] = molecular target: Serine/threonine-protein kinase VRK2 (Homo sapiens, UniProt Q86Y07); test: VRK2(VRK2LGRI) Takeda global kinase panel
[23] = molecular target: Mitogen-activated protein kinase 4 (Homo sapiens, UniProt P31152); test: ERK4(MAP4LGY1) Takeda global kinase panel
[24] = molecular target: Sodium-dependent dopamine transporter (Homo sapiens) (UniProt Q01959); conditions: Compound concentration 10.0 uM
[25] = molecular target: Adenosine receptor A2a (Homo sapiens) (UniProt P29274); conditions: Compound concentration 10.0 uM
[26] = molecular target: Tyrosine-protein kinase FRK (Homo sapiens, UniProt P42685); test: FRK(FRK1LGF1) Takeda global kinase panel
Sequence of Tyrosine-protein kinase FRK (P42685 whole entry): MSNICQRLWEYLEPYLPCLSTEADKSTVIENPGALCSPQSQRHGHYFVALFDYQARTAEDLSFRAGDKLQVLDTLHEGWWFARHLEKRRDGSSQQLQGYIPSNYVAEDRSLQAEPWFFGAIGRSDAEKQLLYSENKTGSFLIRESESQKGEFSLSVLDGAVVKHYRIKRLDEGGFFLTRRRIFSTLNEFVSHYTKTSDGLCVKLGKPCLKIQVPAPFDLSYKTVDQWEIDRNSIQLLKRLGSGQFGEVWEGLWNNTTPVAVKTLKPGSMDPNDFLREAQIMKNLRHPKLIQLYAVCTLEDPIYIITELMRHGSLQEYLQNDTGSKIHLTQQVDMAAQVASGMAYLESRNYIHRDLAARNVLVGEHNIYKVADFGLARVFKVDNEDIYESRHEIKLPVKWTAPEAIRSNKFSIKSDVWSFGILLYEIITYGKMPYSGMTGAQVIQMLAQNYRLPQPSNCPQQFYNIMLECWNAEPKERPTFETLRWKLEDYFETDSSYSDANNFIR

[27] = molecular target: Activin receptor type-1-like (Homo sapiens, UniProt P37023); test: ALK1(ACL1LGF1) Takeda global kinase panel
[28] = molecular target: STE20/SPS1-related proline-alanine-rich protein kinase (Homo sapiens, UniProt Q9UEW8); test: STLK3(ST39LGRJ) Takeda global kinase panel
[29] = molecular target: Rho-associated protein kinase 1 (Homo sapiens, UniProt Q13464); test: ROCK1(ROC1LGY1) Takeda global kinase panel
Rattus norvegicus = species on record: Rattus norvegicus; test: Inhibition of Imidazoline I2, Central at 10 µM in the Eurofins-Panlabs radioligand binding assay (Eurofins_assay_241000); parameters: ligand concentration 2 nM; conditions: Compound concentration 10.0 uM
[30] = molecular target: Ankyrin repeat and protein kinase domain-containing protein 1 (Homo sapiens, UniProt Q8NFD2); test: SgK288(ANK1LGRL) Takeda global kinase panel
Activin receptor type-1 = Activin receptor type-1 (Homo sapiens, UniProt Q04771); test: ALK2(ACV1LGF1) Takeda global kinase panel
[31] = molecular target: Myosin light chain kinase (Homo sapiens, UniProt Q32MK0); test: caMLCK(MYL3LGF1) Takeda global kinase panel
[32] = molecular target: Phosphorylase b kinase gamma catalytic chain, skeletal muscle/heart isoform (Homo sapiens, UniProt Q16816); test: PhKgamma1(PHG1LHY1) Takeda global kinase panel
[33] = molecular target: 5-hydroxytryptamine receptor 2B (Homo sapiens) (UniProt P41595); conditions: Compound concentration 10.0 uM
[34] = molecular target: Serine/threonine-protein kinase Chk1 (Homo sapiens, UniProt O14757); test: CHK1(CHE1CGP1) Takeda global kinase panel
Ephrin type-A receptor 8 = Ephrin type-A receptor 8 (Homo sapiens, UniProt P29322); test: EphA8(EPA8LGF1) Takeda global kinase panel
Sequence of Ephrin type-A receptor 8 (P29322 whole entry, canonical isoform): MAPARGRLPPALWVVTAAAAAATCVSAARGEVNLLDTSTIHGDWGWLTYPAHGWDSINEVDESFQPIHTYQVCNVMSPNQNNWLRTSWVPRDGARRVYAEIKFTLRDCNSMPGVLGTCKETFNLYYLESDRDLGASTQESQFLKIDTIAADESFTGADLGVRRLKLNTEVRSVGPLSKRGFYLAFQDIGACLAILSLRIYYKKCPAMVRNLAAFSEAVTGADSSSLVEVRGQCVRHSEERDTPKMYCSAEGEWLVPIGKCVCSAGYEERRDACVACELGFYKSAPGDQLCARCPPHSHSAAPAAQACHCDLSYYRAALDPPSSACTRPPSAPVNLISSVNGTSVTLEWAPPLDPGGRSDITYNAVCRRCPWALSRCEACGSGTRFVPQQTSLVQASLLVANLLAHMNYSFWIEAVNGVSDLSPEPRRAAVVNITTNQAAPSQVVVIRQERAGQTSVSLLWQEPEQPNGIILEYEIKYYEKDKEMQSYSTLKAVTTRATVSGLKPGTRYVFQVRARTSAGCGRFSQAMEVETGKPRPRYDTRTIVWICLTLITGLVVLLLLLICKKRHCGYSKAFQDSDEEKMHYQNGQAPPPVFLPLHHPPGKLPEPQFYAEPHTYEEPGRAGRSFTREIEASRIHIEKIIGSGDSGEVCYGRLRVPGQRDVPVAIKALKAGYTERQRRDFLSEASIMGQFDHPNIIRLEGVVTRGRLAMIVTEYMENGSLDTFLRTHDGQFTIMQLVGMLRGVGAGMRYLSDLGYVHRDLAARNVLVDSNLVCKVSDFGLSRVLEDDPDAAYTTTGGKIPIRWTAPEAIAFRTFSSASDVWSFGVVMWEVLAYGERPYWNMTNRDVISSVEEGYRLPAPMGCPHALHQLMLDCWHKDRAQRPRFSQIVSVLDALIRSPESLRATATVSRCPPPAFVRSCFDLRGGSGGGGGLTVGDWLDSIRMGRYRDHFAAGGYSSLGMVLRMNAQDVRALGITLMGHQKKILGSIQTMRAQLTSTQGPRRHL

[35] = molecular target: Phosphatidylinositol 4,5-bisphosphate 3-kinase catalytic subunit beta isoform (Homo sapiens, UniProt P42338); test: PIK3CB(PI3BCGRK) Takeda global kinase panel
[36] = molecular target: Mitogen-activated protein kinase 14 (Homo sapiens, UniProt Q16539); test: p38alpha(MP14LGI1) Takeda global kinase panel
[37] = molecular target: Cyclin-dependent kinase 13 (Homo sapiens, UniProt Q14004); test: CHED(CD13PHS1) Takeda global kinase panel
[38] = molecular target: Neuropeptide Y receptor type 2 (Homo sapiens) (UniProt P49146); test: Inhibition of Neuropeptide Y Y2 at 10 µM in the Eurofins-Panlabs radioligand binding assay (Eurofins_assay_257110); conditions: Compound concentration 10.0 uM
[39] = molecular target: 5-hydroxytryptamine receptor 5A (Homo sapiens) (UniProt P47898); conditions: Compound concentration 10.0 uM
[40] = molecular target: Serine/threonine-protein kinase Nek5 (Homo sapiens, UniProt Q6P3R8); test: Nek5(NEK5LGRD) Takeda global kinase panel

Question: With `CN1C(=O)[C@@H](N2CCc3c(nn(Cc4ccccc4)c3Br)C2=O)COc2ccccc21` [TP-030-2] as the compound, how does the IC50 [1] read?
Answer: The IC50 was 1000 nM.

Question: What about the inhibition [2] of the same compound?
Answer: The inhibition was 16.1%.

Question: What about the IC50 [3] of the same compound?
Answer: The IC50 was 1000 nM.

Question: What about the IC50 [4] of the same compound?
Answer: The IC50 was 10 nM.

Question: What about the IC50 [5] of the same compound?
Answer: The IC50 was 1000 nM.

Question: What about the IC50 [6] of the same compound?
Answer: The IC50 was 1000 nM.

Question: And the inhibition [7]?
Answer: Its inhibition is 8.81%.

Question: And the IC50 [8]?
Answer: Its IC50 is 1000 nM.

Question: What about the IC50 [9] of the same compound?
Answer: Its IC50 is 1000 nM.

Question: And the IC50 [10]?
Answer: The IC50 was 1000 nM.

Question: And the inhibition [11]?
Answer: Its inhibition is -5.06%.

Question: And the IC50 [12]?
Answer: Its IC50 is 1000 nM.

Question: What about the IC50 [13] of the same compound?
Answer: Its IC50 is 1000 nM.

Question: What about the IC50 [14] of the same compound?
Answer: The IC50 was 1000 nM.

Question: What about the IC50 (Ephrin type-A receptor 3) of the same compound?
Answer: Its IC50 is 1000 nM.

Question: And the IC50 [15]?
Answer: The IC50 was 1000 nM.

Question: What about the IC50 [16] of the same compound?
Answer: The IC50 was 1000 nM.

Question: And the IC50 [17]?
Answer: The IC50 was 1000 nM.

Question: And the IC50 [18]?
Answer: The IC50 was 1000 nM.

Question: And the IC50 [19]?
Answer: Its IC50 is 1000 nM.

Question: What about the IC50 [20] of the same compound?
Answer: Its IC50 is 1000 nM.

Question: And the IC50 (HT-29)?
Answer: Its IC50 is 1.3 nM (active).

Question: And the IC50 [21]?
Answer: Its IC50 is 1000 nM.

Question: And the IC50 [22]?
Answer: Its IC50 is 1000 nM.

Question: What about the IC50 [23] of the same compound?
Answer: The IC50 was 1000 nM.

Question: What about the inhibition [24] of the same compound?
Answer: Its inhibition is -8.33%.

Question: What about the inhibition [25] of the same compound?
Answer: The inhibition was 8%.

Question: What about the IC50 [26] of the same compound?
Answer: The IC50 was 1000 nM.

Question: And the IC50 [27]?
Answer: The IC50 was 1000 nM.

Question: What about the IC50 [28] of the same compound?
Answer: The IC50 was 1000 nM.

Question: And the IC50 [29]?
Answer: Its IC50 is 1000 nM.

Question: What about the inhibition (Rattus norvegicus) of the same compound?
Answer: Its inhibition is -6%.

Question: What about the IC50 [30] of the same compound?
Answer: Its IC50 is 1000 nM.

Question: And the IC50 (Activin receptor type-1)?
Answer: Its IC50 is 1000 nM.

Question: And the IC50 [31]?
Answer: Its IC50 is 1000 nM.

Question: And the IC50 [32]?
Answer: The IC50 was 1000 nM.

Question: What about the inhibition [33] of the same compound?
Answer: Its inhibition is 38.3%.

Question: What about the IC50 [34] of the same compound?
Answer: The IC50 was 1000 nM.

Question: What about the IC50 (Ephrin type-A receptor 8) of the same compound?
Answer: Its IC50 is 1000 nM.

Question: What about the IC50 [35] of the same compound?
Answer: The IC50 was 1000 nM.

Question: And the IC50 [36]?
Answer: Its IC50 is 1000 nM.

Question: And the IC50 [37]?
Answer: The IC50 was 1000 nM.

Question: What about the inhibition [38] of the same compound?
Answer: The inhibition was -6%.

Question: What about the inhibition [39] of the same compound?
Answer: Its inhibition is 38.2%.

Question: What about the IC50 [40] of the same compound?
Answer: Its IC50 is 1000 nM.

From ChEMBL document CHEMBL4507326, “Data for DCP probe TP-030-2” (2021)
